Consider four molecules from patent publication US8563589B2, “Methods of treating neuropathic pain with benzimidazole derivative agonists of PPARgamma” (priority 2009, dated 2013).

Test [1] has as its system Bennett neuropathic pain model. Kind of test: Bennett (chronic constriction injury) neuropathic pain model, cold plate / cold allodynia test. It counts as in vivo, rat. The note with it: for latency time to removal of the affected paw from a cold plate, difference from vehicle control: dosed orally at 100 mg/kg, measured one hour later, cold allodynia test, ANOVA p<0.05 (FIG. 1). The method, then: FIG. 1—Efficacy of PPARγ agonists Muraglitizar and Tesaglitizar in Bennett animal model for neuropathic pain. PPAR agonist compounds and positive control carbamazepine were dosed orally at 100 mg/kg, and pain behavior was measured one hour later with the cold allodynia test, as the latency time to removal of the affected paw from a cold plate. Statistical analysis of raw data was performed by analysis of variance (ANOVA), with significance threshold set at p<0.05. Analgesic activity was determined as a statistically significant increase in latency time to paw withdrawal in treated animals as compared to vehicle-treated animals. Comparisons for statistically significant differences in latency times were made between PPAR agonist compound-treated animals and vehicle controls, between carbamazepine-treated animals and vehicle controls, and between PPAR agonist compound-treated animals and carbamazepine-treated animals from the same experiment. All statistically significant differences between compared groups are indicated by the brackets, with *=p<0.05, and **=p<0.001.
FIG. 3—Effect of carbamazepine (+ control) and 3-(2,4-dichlorobenzyl)-2-methyl-N-(pentylsulfonyl)-3H-benzimidazole-5-carboxamide (“Atx” in Figure) on the latency to lift paw from the cold plate 60 min following compound injection, in rats with the Bennett model of neuropathic pain. Data represent mean±SEM. Statistical analysis of data as for FIG. 1; *=p<0.05.
These models are based on three surgical procedures: (i) the spinal nerve ligation (SNL) [Kim, S, and J. Chung, An experimental model for peripheral neuropathy produced by segmental spinal nerve ligation in the rat. Pain, 1992. 50: p. 355-363]; (ii) the partial sciatic nerve lesion (Seltzer) [Seltzer, Z., R. Dubner, and Y. Shir, A novel behavioral model of neuropathic pain disorders produced in rats by partial sciatic nerve injury. Pain, 1990. 43: p. 205-218]; (iii) and the chronic constriction injury [Bennett, G. and Y. Xie, A peripheral mononeuropathy in rat that produces disorders of pain sensation like those seen in man. Pain, 1988. 33: p. 87-107]. The Bennett model was used, as described below.
Young adult, male Sprague Dawley rats (200-250 g) from Harlan were used. Upon receipt, animals were assigned unique identification numbers (tail marked) and housed 2-3 per cage in suspended polycarbonate rat cages with filter paper covering mesh shelf. Rats were acclimated for up to 7 days prior to surgery. […]
The apparatus consists of a cold plate (Ugo Basile Hot/Cold Plate) measuring 25 (w)×37 (d)×16 (h) cm with a 10 cm thick aluminum circular plate. […] Baseline responses were measured on the day prior to drug administration. Each animal was tested by placing it on the cold plate (set to 4 C) and the latency of paw withdrawal was recorded. […]

The test system of the next test is type 2 diabetes. The following applies: Phase II; quoted from Meinke et al., Annual Reports in Medicinal Chemistry (2006); cited from earlier work.
The next test relates to neurogenic pain model. The following applies: reported in WO2006085686; cited from earlier work.

In the case of `CCCCCS(=O)(=O)NC(=O)c1ccc2nc(C)n(Cc3ccc(Cl)cc3Cl)c2c1` [Atx, 3-(2,4-dichlorobenzyl)-2-methyl-N-(pentylsulfonyl)-3H-benzimidazole-5-carboxamide], in test [1] (60 min following compound injection, rats with the Bennett model (FIG. 3)), the “latency to lift paw from the cold plate, analgesic activity compared to carbamazepine (+ control)” value is “not significantly different from carbamazepine”. Moreover, the “latency to lift paw from the cold plate, analgesic activity compared to vehicle” value in test [1] (60 min following compound injection, rats with the Bennett model, p<0.05 (FIG. 3)) is reported as “analgesic activity which is significantly greater than vehicle alone”. Besides, in the test with type 2 diabetes, the “advantage for type 2 diabetes in clinical trials” value was “no advantage [for type 2 diabetes] was demonstrated in clinical trials”.
For the molecule `O=C(Nc1ccccc1)c1cc([N+](=O)[O-])ccc1Cl` [GW9662, 2-chloro-5-nitro-N-phenylbenzamide], the “activity in a neurogenic pain model” value with neurogenic pain model was “demonstrates activity in a neurogenic pain model”.
`COc1ccc(OC(=O)N(CC(=O)O)Cc2ccc(OCCc3nc(-c4ccccc4)oc3C)cc2)cc1` [Muraglitazar]: in test [1], the “latency time to removal of the affected paw from a cold plate, difference from vehicle control” value is “neither of Muraglitazar or Tesaglitazar showed any statistically significant difference from a vehicle control”.
On the same count and under the same terms, with `CCO[C@@H](Cc1ccc(OCCc2ccc(OS(C)(=O)=O)cc2)cc1)C(=O)O` [Tesaglitazar] the entry was “neither of Muraglitazar or Tesaglitazar showed any statistically significant difference from a vehicle control”.
